# Data taken from paper PMC13061574 (Nature structural & molecular biology, 2024).
# Where a chain is given by its changes, count along the chain named. In names and notes the source's numbering stands.
# T1: THIK1 (K2P13.1) (Homo sapiens, UniProt Q9HB14, R92A)
# T1 sequence (Q9HB14 1-408 R92A): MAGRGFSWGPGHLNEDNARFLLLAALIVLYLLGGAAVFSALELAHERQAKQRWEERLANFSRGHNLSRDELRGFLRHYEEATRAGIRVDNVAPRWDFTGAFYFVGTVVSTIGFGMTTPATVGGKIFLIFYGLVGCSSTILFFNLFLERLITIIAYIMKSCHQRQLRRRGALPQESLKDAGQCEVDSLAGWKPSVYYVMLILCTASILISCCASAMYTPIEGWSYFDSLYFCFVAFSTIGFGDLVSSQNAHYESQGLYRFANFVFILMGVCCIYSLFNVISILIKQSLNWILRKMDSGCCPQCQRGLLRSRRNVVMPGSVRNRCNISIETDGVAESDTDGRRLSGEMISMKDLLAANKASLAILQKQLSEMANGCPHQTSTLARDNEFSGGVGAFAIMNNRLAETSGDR
# B1: THIK1EM (human K2P13.1 (THIK1) residues 1-350, N59Q, N65Q) (domain or fragment, UniProt Q9HB14 1-350, looked up)
# chain: MAGRGFSWGPGHLNEDNARFLLLAALIVLYLLGGAAVFSALELAHERQAKQRWEERLAQFSRGHQLSRDELRGFLRHYEEATRAGIRVDNVRPRWDFTGAFYFVGTVVSTIGFGMTTPATVGGKIFLIFYGLVGCSSTILFFNLFLERLITIIAYIMKSCHQRQLRRRGALPQESLKDAGQCEVDSLAGWKPSVYYVMLILCTASILISCCASAMYTPIEGWSYFDSLYFCFVAFSTIGFGDLVSSQNAHYESQGLYRFANFVFILMGVCCIYSLFNVISILIKQSLNWILRKMDSGCCPQCQRGLLRSRRNVVMPGSVRNRCNISIETDGVAESDTDGRRLSGEMISMK
# B2: THIK1EM-S136P (domain or fragment, human, UniProt Q9HB14 1-350, looked up)
# chain: B1 chain with S136P
# Tests used:
# [1] = target: T1, THIK1 (K2P13.1); assay: TEVC electrophysiology, activation; assay type: cell-based
# [2] = target: T1, THIK1 (K2P13.1); assay: TEVC electrophysiology dose–response, activation; assay type: cell-based
# [3] = target: the molecule itself; assay: cryo-EM structure
molecule,measurement,setting,value
"CC/C=C\C/C=C\C/C=C\C/C=C\C/C=C\CCCC(=O)O [EPA, eicosapentanoic acid]","TEVC electrophysiology, activation",[1],"α-LNL, eicosapentanoic acid (EPA), dihomo-γ-EIC (DGLA) and oleic acid (OA) also activated R92A"
"CCCCCCCC/C=C\CCCCCCCC(=O)O [OA, oleic acid]","TEVC electrophysiology, activation",[1],"α-LNL, eicosapentanoic acid (EPA), dihomo-γ-EIC (DGLA) and oleic acid (OA) also activated R92A"
"CCCCC/C=C\C/C=C\CCCCCCCC(=O)O [EIC, linoleic acid]",EC50,[2],700 nM
B1,stoichiometry N,[3],2
B2,binding result,[3],binds
